{"source": "patent US20240018470A1", "about": "“METHOD OF MANIPULATING PLURIPOTENCY IN CELLS” (YALE UNIVERSITY, priority 2022, published 2024)", "system": "Xenopus embryos", "test": "Whole mount in situ hybridization for germ layer and pluripotency markers", "assay_type": "in vivo, Xenopus tropicalis", "from_the_text": "In order to generate a full-length antisense probe for X. tropicalis kcnh6, kcnh6 cDNA was cloned from stage 45 tadpole whole mRNA using primers […] ID NO:10) and […] ID NO:11) (XM_012952904.1). It was noted that kcnh6 had been misannotated as kcnh2 in the v7.1 model of the X. tropicalis genome (The present study used NCBI Annotation XP_012808358.2 to identify KCNH6). […] GRPs were dissected post fixation and prior to dehydration to detect dandy. To detect putative gene expression in the prospective endoderm (mixer, vegT, kcnh6) gastrula stage embryos were bisected to facilitate better probe access. Briefly, whole mount in situ hybridization of digoxigenin-labeled antisense probes was performed overnight, the labelled embryos were then washed, incubated with anti-digoxigenin-AP Fab fragments (Roche 11093274910), and signal was detected using BM-purple (Roche 11442074001). Normal embryonic medium is 1/9× modified Ringer's (MR) containing 11 mM NaCl, 0.2 mM KCl, 0.2 mM CaCl2), 0.1 mM Mg2Cl and 0.55 mM HEPES. […] For extracellular K^+ manipulations, the KCl concentration in 1/9×MR was modified from 0.2 mM (normal) to 20 mM (high) or 0 mM (low). […] For rapamycin, the present study created a standard stock solution of 50 mg/ml in DMSO. The stock solution was diluted 1:2500 in the appropriate embryonic media (final 20 μg/ml). […] In experiments where embryos were evaluated for phenotypes and scored (gastrulation, left-right patterning, in situ hybridizations) the present study carried out three to five biological replicates and Fisher's exact test to evaluate statistical significance. The animal cap experiment was performed twice with a total score of four to eight animal caps per experiment. […] For whole cell electrophysiological recordings, three to five embryos (two cells each) were examined for their membrane potential and statistical significance was tested by student's t-test. Graphs were designed using GraphPad Prism software. Models were created with BioRender.com."}
{"substance": "kcnh6 MO: kcnh6 translation blocking morpholino oligonucleotide, 5′-GGTCCTCGAAGTTTAGGATAAACAT-3′, SEQ ID NO:1 (all phosphorodiamidate morpholino (PMO))", "values": [{"measurement": "embryos with myf5 lost", "setting": "kcnh6 depleted embryos treated only with DMSO", "value": "35±5", "unit": "%"}, {"measurement": "embryos with absent ectodermin", "setting": "kcnh6 depleted embryos treated with DMSO", "value": "51±6", "unit": "%"}]}
